Measured values: patent publication US12497428B2, “Galactoside inhibitor of galectins” (GALECTO BIOTECH AB, priority 2018, dated 2025)

Experiments:
[1] = target: Galectin-1 (Homo sapiens, UniProt P09382); assay: Fluorescence anisotropy assay, inhibition of galectin / fluorescein tagged saccharide probe interaction; type: binding
Description: (§1) The affinity of Example 1-28 for galectins were determined by a fluorescence anisotropy assay where the compound was used as an inhibitor of the interaction between galectin and a fluorescein tagged saccharide probe as described Sörme, P., Kahl-Knutsson, B., Huflejt, M., Nilsson, U. J., and Leffler H. (2004) Fluorescence polarization as an analytical tool to evaluate galectin-ligand interactions. Anal. Biochem. 334: 36-47, (Sörme et al., 2004) and Monovalent interactions of Galectin-1 By Salomonsson, Emma; Larumbe, Amaia; Tejler, Johan; Tullberg, Erik; Rydberg, Hanna; Sundin, Anders; Khabut, Areej; Frejd, Torbjorn; Lobsanov, Yuri D.; Rini, James M.; et al, From Biochemistry (2010), 49(44), 9518-9532, (Salomonsson et al., 2010).

[2] = target: Galectin-3 (Homo sapiens, UniProt P17931); assay: as above; type: binding
Description: as §1

Sequence of Galectin-3 (P17931 whole entry): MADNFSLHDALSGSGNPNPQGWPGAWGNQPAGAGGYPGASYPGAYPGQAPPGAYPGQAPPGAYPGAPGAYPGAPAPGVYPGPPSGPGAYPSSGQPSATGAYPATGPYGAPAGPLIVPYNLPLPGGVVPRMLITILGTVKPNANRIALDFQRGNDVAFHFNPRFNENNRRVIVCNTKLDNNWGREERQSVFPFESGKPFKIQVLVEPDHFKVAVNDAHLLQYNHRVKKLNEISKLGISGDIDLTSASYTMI
Sequence of Galectin-1 (P09382 whole entry): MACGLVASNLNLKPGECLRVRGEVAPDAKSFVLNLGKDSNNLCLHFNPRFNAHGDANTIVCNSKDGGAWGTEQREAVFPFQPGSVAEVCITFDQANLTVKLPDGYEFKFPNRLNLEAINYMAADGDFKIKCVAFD

Compound | Kd [1] [nM] | Kd [2] [nM]
OC[C@H]1O[C@H](Sc2cncc(Br)c2)[C@H](OCc2nccs2)[C@@H](n2cc(-c3cc(F)c(F)c(F)c3)nn2)[C@H]1O [Example 23, 5-Bromopyridin-3-yl 3-deoxy-3-[4-(3,4,5-trifluorophenyl)-1H-1,2,3-triazol-1-yl]-2-O-[(thiazol-2-yl)methyl]-1-thio-α-D-galactopyranoside] | 2600 | 41
OC[C@H]1O[C@H](Sc2cncc(Br)c2)[C@H](OCc2cncs2)[C@@H](n2cc(-c3cc(F)c(F)c(F)c3)nn2)[C@H]1O [Example 22, 5-Bromopyridin-3-yl 3-deoxy-3-[4-(3,4,5-trifluorophenyl)-1H-1,2,3-triazol-1-yl]-2-O-[(thiazol-5-yl)methyl]-1-thio-α-D-galactopyranoside] | 1900 | 21
O=C(O)CO[C@@H]1[C@@H](n2cc(-c3cc(F)c(F)c(F)c3)nn2)[C@@H](O)[C@@H](CO)O[C@@H]1Sc1ccc(Cl)c(Cl)c1 [Example 6, 3,4-Dichlorphenyl 2-O-carboxymethyl-3-deoxy-3-[4-(3,4,5-trifluorophenyl)-1H-1,2,3-triazol-1-yl]-1-thio-α-D-galactopyranoside] | – | 17
OCC1O[C@H](Sc2ccc(Cl)c(Cl)c2)C(OCc2cocn2)C(n2cc(-c3cc(F)c(Cl)c(F)c3)nn2)[C@H]1O (stereo partly drawn) [Example 20, 3,4-Dichlorphenyl 3-[4-(4-chloro-3,5-difluorophenyl)-1H-1,2,3-triazol-1-yl]-3-deoxy-2-O-[(oxazol-4-yl)methyl]-1-thio-α-D-galactopyranoside] | 29700 | 87
OC[C@H]1O[C@H](Sc2cncc(Br)c2)[C@H](OCc2cc(F)c(O)c(F)c2)[C@@H](n2cc(-c3cc(F)c(F)c(F)c3)nn2)[C@H]1O [Example 11, 5-Bromopyridin-3-yl 3-deoxy-3-[4-(3,4,5-trifluorophenyl)-1H-1,2,3-triazol-1-yl]-2-O-(3,5-difluoro-4-hydroxybenzyl)-1-thio-α-D-galactopyranoside] | 260 | 17
OCC1O[C@H](Sc2ccc(Cl)c(Cl)c2)C(OCc2nnn[nH]2)C(n2cc(-c3cc(F)c(F)c(F)c3)nn2)[C@H]1O (stereo in doubt) [Example 14, 3,4-Dichlorphenyl 3-deoxy-3-[4-(3,4,5-trifluorophenyl)-1H-1,2,3-triazol-1-yl]-2-O-[(1H-tetrazol-5-yl)methyl]-1-thio-α-D-galactopyranoside] | 1800 | 8
O=P(O)(O)O[C@@H]1[C@@H](n2cc(-c3cc(F)c(F)c(F)c3)nn2)[C@@H](O)[C@@H](CO)O[C@@H]1Sc1cncc(Br)c1 [Example 1, 5-Bromopyridin-3-yl 3-deoxy-3-[4-(3,4,5-trifluorophenyl)-1H-1,2,3-triazol-1-yl]-2-O-phospho-1-thio-α-D-galactopyranoside] | 5400 | –
Cn1ccnc1CO[C@@H]1[C@@H](n2cc(-c3cc(F)c(F)c(F)c3)nn2)[C@@H](O)[C@@H](CO)O[C@@H]1Sc1cncc(Br)c1 [Example 16, 5-Bromopyridin-3-yl 3-deoxy-3-[4-(3,4,5-trifluorophenyl)-1H-1,2,3-triazol-1-yl]-2-O-[(1-methyl-1H-imidazol-2-yl)methyl]-1-thio-α-D-galactopyranoside] | 6400 | 57
OC[C@H]1O[C@H](Sc2cncc(Br)c2)[C@H](OCc2nnn[nH]2)[C@@H](n2cc(-c3cc(F)c(F)c(F)c3)nn2)[C@H]1O [Example 12, 5-Bromopyridin-3-yl 3-deoxy-3-[4-(3,4,5-trifluorophenyl)-1H-1,2,3-triazol-1-yl]-2-O-[(1H-tetrazol-5-yl)methyl]-1-thio-α-D-galactopyranoside] | 2400 | 16
OC[C@H]1O[C@H](Sc2cncc(Br)c2)[C@H](OCc2ncco2)[C@@H](n2cc(-c3cc(F)c(F)c(F)c3)nn2)[C@H]1O [Example 17, 5-Bromopyridin-3-yl 3-deoxy-3-[4-(3,4,5-trifluorophenyl)-1H-1,2,3-triazol-1-yl]-2-O-[(oxazol-2-yl)methyl]-1-thio-α-D-galactopyranoside] | 2800 | 24
